# Measured values from patent publication US12252524B2, “GIP/GLP1 co-agonist compounds” (Eli Lilly and Company, priority 2018, dated 2025).
# Numbered stars: 1 amine (or outer) side, 2 acyl side, 3 side chain; on linkers, the order of the positions; unused ones are H or OH. Square brackets hold non-standard residues; d marks the D form. Side chains are listed from the residue outwards. Peptide text beside a SMILES is read from it. * marks the point of attachment. C20 diacid = O=C(O)CCCCCCCCCCCCCCCCCCC(=O)*; αMePhe(2-F) = C[C@](N)(Cc1ccccc1F)C(=O)O; γGlu = O=C(O)[C@H](CCC(=O)[*:2])N[*:1]; αMeF = C[C@](N)(Cc1ccccc1)C(=O)O; αMeL = CC(C)C[C@](C)(N)C(=O)O; AEEA = NCCOCCOCC(=O)O; Aib = CC(C)(N)C(=O)O
# Key:
# human Gcg receptor = target: T1, human Gcg receptor (Homo sapiens, UniProt P47871); test: [125I]-Glucagon binding (SPA), human Gcg receptor; details: read-out: hGLcgR Ki, nM (SEM, n)
# T1 construct: expressed in transfected cells; crude membranes
# T1 sequence (P47871 26-477): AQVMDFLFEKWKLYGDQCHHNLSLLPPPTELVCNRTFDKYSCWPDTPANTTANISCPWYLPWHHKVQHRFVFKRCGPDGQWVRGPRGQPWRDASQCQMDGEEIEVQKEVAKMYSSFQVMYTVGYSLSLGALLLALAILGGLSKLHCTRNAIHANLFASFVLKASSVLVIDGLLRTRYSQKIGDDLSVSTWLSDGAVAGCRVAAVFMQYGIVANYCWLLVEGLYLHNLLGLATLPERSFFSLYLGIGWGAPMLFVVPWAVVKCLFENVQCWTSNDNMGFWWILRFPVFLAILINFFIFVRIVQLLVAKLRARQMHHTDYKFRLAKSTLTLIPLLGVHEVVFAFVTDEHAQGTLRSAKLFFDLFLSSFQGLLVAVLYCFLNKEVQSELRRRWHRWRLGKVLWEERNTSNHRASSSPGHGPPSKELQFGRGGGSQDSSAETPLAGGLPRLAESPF
# Method in brief: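 Crude membranes from cells expressing the receptor, prepared by hypotonic lysis in 50 mM Tris HCl pH 7.5 with protease inhibitors, homogenization and differential centrifugation, were used in a WGA-bead SPA. Binding buffer: 25 mM HEPES pH 7.4, 2.5 mM CaCl2, 1 mM MgCl2, bacitracin, Tween-20.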
# human GIP receptor = target: T2, human GIP receptor (Homo sapiens, UniProt P48546); test: [125I]-GIP binding (SPA), human GIP receptor; details: read-out: hGIPR Ki, nM (SEM, n)
# T2 construct: expressed in transfected cells; crude membranes
# T2 sequence (P48546 22-466): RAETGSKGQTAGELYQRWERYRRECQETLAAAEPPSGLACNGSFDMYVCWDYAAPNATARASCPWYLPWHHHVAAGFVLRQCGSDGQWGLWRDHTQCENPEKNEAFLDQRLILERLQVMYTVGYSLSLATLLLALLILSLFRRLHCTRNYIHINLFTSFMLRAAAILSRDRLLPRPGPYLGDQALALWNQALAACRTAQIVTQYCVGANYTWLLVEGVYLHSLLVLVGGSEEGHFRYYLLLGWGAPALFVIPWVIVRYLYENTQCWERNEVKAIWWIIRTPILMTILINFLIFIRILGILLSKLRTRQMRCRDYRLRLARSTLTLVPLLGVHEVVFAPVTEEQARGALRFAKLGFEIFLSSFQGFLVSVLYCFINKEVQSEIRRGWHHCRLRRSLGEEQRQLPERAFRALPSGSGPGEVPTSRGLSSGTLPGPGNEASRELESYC
# [1] = target: human GLP-1 receptor (GLP-1R) (Homo sapiens, UniProt P43220); test: cAMP pharmacological functional assay in presence of casein, hGLP-1R; assay type: cell-based; details: HEK293 cells expressing hGLP-1R, 0.1% Casein, geometric mean; read-out: hGLP1R cAMP Rel EC50 nM (SEM, n)
# Sequence of human GLP-1 receptor (GLP-1R) (P43220 24-463): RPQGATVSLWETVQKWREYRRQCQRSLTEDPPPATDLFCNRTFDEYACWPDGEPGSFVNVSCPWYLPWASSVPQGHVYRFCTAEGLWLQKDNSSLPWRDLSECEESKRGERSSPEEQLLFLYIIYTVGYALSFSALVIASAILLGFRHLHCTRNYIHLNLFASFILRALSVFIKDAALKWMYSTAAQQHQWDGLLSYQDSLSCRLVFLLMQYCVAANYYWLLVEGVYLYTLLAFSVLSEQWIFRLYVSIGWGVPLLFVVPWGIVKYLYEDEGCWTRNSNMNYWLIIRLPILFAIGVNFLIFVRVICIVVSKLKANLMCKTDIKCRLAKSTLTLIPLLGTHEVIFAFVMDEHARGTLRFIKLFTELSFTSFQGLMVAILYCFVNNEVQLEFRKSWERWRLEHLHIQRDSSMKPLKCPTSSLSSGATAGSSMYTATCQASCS
# [2] = target: T3, gastric inhibitory peptide receptor (GIPR) (Homo sapiens, UniProt P48546); test: cAMP pharmacological functional assay in presence of casein, hGIPR; assay type: cell-based; details: HEK293 cells expressing hGIPR, 0.1% Casein, geometric mean; read-out: hGIPR cAMP Rel EC50 nM (SEM, n)
# T3 sequence (P48546 22-466): T2 sequence (P48546 22-466)
# human GLP-1R = human GLP-1R (Homo sapiens, UniProt P43220); test: [125I]-GLP-1 binding (SPA), human GLP-1 receptor; design: expressed in transfected cells; crude membranes; details: read-out: hGLP1R Ki, (nM) (SEM, n)
# Sequence of human GLP-1R (P43220 24-463): as above
# Method in brief: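 Ki values are geometric means with SEM over independent replicates on different days, derived from IC50s fitted by four-parameter nonlinear regression. The assay used crude cell membranes in HEPES buffer, pH 7.4, containing CaCl2, MgCl2, bacitracin and TWEEN-20.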
Structure (SMILES),Ki (human Gcg receptor) [nM],Ki (human GIP receptor) [nM],EC50 [1] [nM],EC50 [2] [nM],Ki (human GLP-1R) [nM]
CC[C@H](C)[C@H](NC(=O)[C@H](CC(C)C)NC(=O)[C@H](Cc1ccc(O)cc1)NC(=O)[C@@H](CCC(=O)O)NC(=O)[C@@H](NC(=O)[C@H](Cc1ccccc1)NC(=O)[C@H](CCC(=O)O)NC(=O)C(C)(C)NC(=O)[C@H](CCC(N)=O)NC(=O)[C@H](C)NC(=O)[C@H](CCCCNC(=O)COCCOCCNC(=O)COCCOCCNC(=O)CC[C@H](NC(=O)CCCCCCCCCCCCCCCCCCC(=O)O)C(=O)O)NC(=O)[C@H](CCC(=O)O)NC(=O)[C@H](CC(=O)O)NC(=O)[C@H](CC(C)C)NC(=O)[C@H](CC(C)C)NC(=O)[C@@H](NC(=O)[C@H](CO)NC(=O)[C@H](Cc1ccc(O)cc1)NC(=O)[C@H](CC(=O)O)NC(=O)[C@H](CO)NC(=O)[C@@H](NC(=O)[C@](C)(Cc1ccccc1F)NC(=O)[C@@H](NC(=O)CNC(=O)[C@H](CCC(=O)O)NC(=O)C(C)(C)NC(=O)[C@@H](N)Cc1ccc(O)cc1)[C@@H](C)O)[C@@H](C)O)[C@@H](C)CC)[C@@H](C)CC)C(=O)N[C@@H](CCC(=O)O)C(=O)NCC(=O)NCC(=O)N1CCC[C@H]1C(=O)N[C@@H](CO)C(=O)N[C@@H](CO)C(=O)NCC(=O)N[C@@H](C)C(=O)N1CCC[C@H]1C(=O)N1CCC[C@H]1C(=O)N1CCC[C@H]1C(=O)N[C@@H](CO)C(N)=O [Example 226] (H-Y[Aib]EGT[αMePhe(2-F)]TSDYSILLDEK([AEEA-AEEA-γGlu-C20 diacid])AQ[Aib]EFI[dE]YLIEGGPSSGAPPPS-NH2),200,0.0254,0.0284,0.0461,4.1
CC[C@H](C)[C@H](NC(=O)[C@H](CC(C)C)NC(=O)[C@H](Cc1ccc(O)cc1)NC(=O)[C@@H](CCC(=O)O)NC(=O)[C@@H](NC(=O)[C@H](Cc1ccccc1)NC(=O)[C@H](CCC(=O)O)NC(=O)C(C)(C)NC(=O)[C@H](CCC(N)=O)NC(=O)[C@H](C)NC(=O)[C@H](CCCCNC(=O)COCCOCCNC(=O)COCCOCCNC(=O)CC[C@H](NC(=O)CCCCCCCCCCCCCCCCCCC(=O)O)C(=O)O)NC(=O)[C@H](CCC(=O)O)NC(=O)[C@H](CC(=O)O)NC(=O)[C@H](CC(C)C)NC(=O)[C@](C)(CC(C)C)NC(=O)[C@@H](NC(=O)[C@H](CO)NC(=O)[C@H](Cc1ccc(O)cc1)NC(=O)[C@H](CC(=O)O)NC(=O)[C@H](CO)NC(=O)[C@@H](NC(=O)[C@](C)(Cc1ccccc1)NC(=O)[C@@H](NC(=O)CNC(=O)[C@H](CCC(=O)O)NC(=O)C(C)(C)NC(=O)[C@@H](N)Cc1ccc(O)cc1)[C@@H](C)O)[C@@H](C)O)[C@@H](C)CC)[C@@H](C)CC)C(=O)N[C@@H](CCC(=O)O)C(=O)NCC(=O)NCC(=O)N1CCC[C@H]1C(=O)N[C@@H](CO)C(=O)N[C@@H](CO)C(=O)NCC(=O)N[C@@H](C)C(=O)N1CCC[C@H]1C(=O)N1CCC[C@H]1C(=O)N1CCC[C@H]1C(=O)N[C@@H](CO)C(N)=O [Example 227] (H-Y[Aib]EGT[αMeF]TSDYSI[αMeL]LDEK([AEEA-AEEA-γGlu-C20 diacid])AQ[Aib]EFI[dE]YLIEGGPSSGAPPPS-NH2),113,0.0146,0.0329,0.0414,2.01
